The values below come from patent US20240424112A1, “TETRAHYDROISOQUINOLINE COMPOUNDS THAT ARE KEAP1 BINDERS” (C4X Discovery Limited, priority 2021, published 2024).

The target of one test is T1, BRD4 long isoform (Homo sapiens, UniProt O60885).
T1 construct: endogenous in cells; host or cells: MDA-MB-468
Description: BRD4 degradation assay (Western blot, MDA-MB-468 cells), long isoform. Type of test: cell-based. The following applies: MDA-MB-468, n = 2. On the procedure:
(§1) BRD4 Degradation Assay Protocol Summary
(§2) MDA-MB-468 cells were cultured routinely in DMEM supplemented with 10% heat inactivated FBS and 1% Penicillin-Streptomycin (Thermofisher Scientific) at 37° C. 5% CO2. Cells were seeded in 6-well plates at 4*10^5 cells per well and left to adhere overnight. Example compounds were solubilised in DMSO to make 10 mM stocks followed by serial dilutions in DMSO to 200× final concentration. These were further diluted in culture media to give 20× treatment stocks before addition to cells to a 1× final concentration. Cells were then incubated at 37° C. 5% CO2 for 24 or 48 hours after which cells were lysed in RIPA buffer supplemented with cOmplete Mini Protease Inhibitor Cocktail and PhosSTOP™ (Roche). Lysates were clarified by centrifugation at 13,000 RPM for 10 minutes and the protein concentration of the resulting supernatants determined by BCA assay (ThermoFisher Scientific) as per manufacturer's instructions. Lysates were denatured and reduced in NuPAGE LDS sample buffer and sample reducing agent before 10 μg was loaded onto NuPAGE […] Tris-Acetate Mini Protein Gels (ThermoFisher Scientific). Protein was transferred to nitrocellulose membranes using a Trans-Blot Turbo Transfer System (Bio-Rad) before blocking for 1 hour in Intercept (TBS) Blocking Buffer (Li-Cor). Membranes were then incubated overnight with BRD4 (ab128874; Abcam) and α-tubulin (T6074; Sigma-Aldrich) antibodies diluted 1:2000 and 1:16,000 respectively in Tris-buffered saline 0.05% Tween 20 (TBS-T). The following day, membranes were washed with TBS-T before addition of anti-rabbit IRDye 800 CW and anti-mouse IRDye 680LT secondary antibodies (LiCor) (diluted 1:10,000 in TBS-T) for one hour. Membranes were then washed with TBS-T before imaging using a LICOR Odyssey Infrared Imaging System with Image Studio Ver 5.2 software (LiCor). Densitometry analysis was carried out in the LiCor image studio software where BRD4 signal was normalised to α-tubulin signal. Percentage degradation of BRD4 relative to the DMSO treated negative control was calculated as: =100−(signal of interest/signal of control sample*100). BRD4 degradation by dBET1 was used as positive control for each plate. Data obtained for the percentage degradation of BRD4 upon treatment with the Example compounds 1-6 and Comparative Example compounds 1-3 at 24 hour incubation are shown in Table 2 and with 48 hour incubation are shown in Table 3.

In the next test the target is T2, BRD4 short isoform (Homo sapiens, UniProt O60885).
T2 construct: endogenous in cells; host or cells: MDA-MB-468
The test can be described thus: BRD4 degradation assay (Western blot, MDA-MB-468 cells), short isoform. Type of test: cell-based. To be noted: MDA-MB-468, n = 2. The procedure:
as §1, §2
For orientation: A western blot detects proteins with antibodies after separation by electrophoresis.

In test [1] the test system is NRF2 mediated gene NAD(P)H:quinone acceptor oxidoreductase 1 (NQO1) mRNA in BEAS-2B cells. The test can be described thus: Beas2B NQO1 mRNA cell based assay. To be noted: Homo sapiens, 24 h, vs vehicle (0.1% DMSO), read-out: EC50 (increase in NQO1 mRNA). On the procedure:
Beas2B NQO1 mRNA Cell Based Assay
The up-regulation of the NRF2 mediated gene NAD(P)H:quinone acceptor oxidoreductase 1 (NQO1) was measured using the following assay method: BEAS-2B cells (ATCC CRL-9609) were plated in 96-well clear plates at 20,000 cells/well in 75 μL of cell culture media and incubated overnight (37° C., 5% CO2). On day 2, 25 μL of compound or controls were added to the cells for 24 h. On day 3, the medium was aspirated from the plate and the Cells-to-CT™ 1-Step TaqMan® Kit (Ambion A25603) was used to perform expression analysis directly from cultured cells without RNA purification according to the manufacturer's instructions.
Briefly, cells were washed with ice cold PBS and 22.5 μL of room-temperature DNase/Lysis solution was added to the cells and incubated at room temperature for 5 minutes. To stop the reaction, 2.25 μL of stop solution was added to the cell lysate. The samples were diluted 1:5 using nuclease free water and 2.5 μL transferred into the PCR plate. Real-time PCR was performed using the C-1000 Thermal Cycler (Bio-Rad) using human beta actin as the internal control. The cDNA was amplified with a specific primer for NQO1 using the 1-step RT-PCR master mix (Ambion Cells-to-CT™ 1-Step TaqMan® Kit A25603). The primers/probes sets that were used for amplification of cDNA were obtained from TaqMan Gene Expression Assays (Applied Biosystems). The comparative CT (ΔΔCT) relative quantification method was used to calculate the relative mRNA level of the target gene NQO1 as described in the Applied Biosystems Chemistry Guide. The data are expressed as an increase in target gene mRNA compared to vehicle (0.1% DMSO) control and the EC50 values were determined by fitting the data to a four parameter logistic fit using XLfit or XE Runner within ActivityBase.

In general, EC50 refers to the concentration that produces a half-maximal response.

Consider `Cc1sc2c(c1C)C(c1ccc(Cl)cc1)=N[C@@H](CC(=O)NCCC(=O)NCCOCc1c(COc3ccc(Cl)c4c3[C@@H](CN3CC5(CC5)CC3=O)N(C(=O)[C@@H]3CCCC[C@]3(C)C(=O)O)CC4)nnn1C)c1nnc(C)n1-2` [Example 4, (1S,2R)-2-((S)-5-Chloro-8-((5-((2-(3-(2-((S)-4-(4-chlorophenyl)-2,3,9-trimethyl-6H-thieno[3,2-f][1,2,4]triazolo[4,3-a][1,4]diazepin-6-yl)acetamido)propanamido)ethoxy)methyl)-1-methyl-1H-1,2,3-triazol-4-yl)methoxy)-1-((6-oxo-5-azaspiro[2.4]heptan-5-yl)methyl)-1,2,3,4-tetrahydroisoguinoline-2-carbonyl)-1-methylcyclohexane-1-carboxylic acid], for which the “% Mean Degradation of BRD4” value at BRD4 long isoform (24 h, 0.1 μM) is listed as −37%; at BRD4 long isoform (24 h, 1 μM), 26%; on BRD4 long isoform (24 h, 5 μM) it was 43%; on BRD4 long isoform (48 h, 0.1 μM), −19%; on BRD4 long isoform (48 h, 1 μM), 56%; on BRD4 long isoform (48 h, 5 μM) it was 71%. The “% Mean Degradation of BRD4” value is given as 18% on BRD4 short isoform (24 h, 0.1 μM); 65% at BRD4 short isoform (24 h, 1 μM); 75% at BRD4 short isoform (24 h, 5 μM); −2% at BRD4 short isoform (48 h, 0.1 μM); 65% at BRD4 short isoform (48 h, 1 μM); 77% at BRD4 short isoform (48 h, 5 μM). In addition, the EC50 in test [1] was 660 nM.
Turning to `Cc1sc2c(c1C)C(c1ccc(Cl)cc1)=N[C@@H](CC(=O)NCCOCCC(=O)NCCOCc1c(COc3ccc(Cl)c4c3[C@@H](CN3CC5(CC5)CC3=O)N(C(=O)[C@@H]3CCCC[C@]3(C)C(=O)O)CC4)nnn1C)c1nnc(C)n1-2` [Example 5, (1S,2R)-2-((S)-5-Chloro-8-((5-(14-((S)-4-(4-chlorophenyl)-2,3,9-trimethyl-6H-thieno[3,2-f][1,2,4]triazolo[4,3-a][1,4]diazepin-6-yl)-6,13-dioxo-2,9-dioxa-5,12-diazatetradecyl)-1-methyl-1H-1,2,3-triazol-4-yl)methoxy)-1-((6-oxo-5-azaspiro[2.4]heptan-5-yl)methyl)-1,2,3,4-tetrahydroisoquinoline-2-carbonyl)-1-methylcyclohexane-1-carboxylic acid], the “% Mean Degradation of BRD4” value at BRD4 long isoform (24 h, 0.1 μM) worked out at 1%; on BRD4 long isoform (24 h, 1 μM), 65%; on BRD4 long isoform (24 h, 5 μM), 69%; at BRD4 long isoform (48 h, 0.1 μM), 34%; on BRD4 long isoform (48 h, 1 μM), 78%; on BRD4 long isoform (48 h, 5 μM), 82%. Further, the “% Mean Degradation of BRD4” value is −5% on BRD4 short isoform (24 h, 0.1 μM); 76% on BRD4 short isoform (24 h, 1 μM); 78% at BRD4 short isoform (24 h, 5 μM); 40% on BRD4 short isoform (48 h, 0.1 μM); 78% on BRD4 short isoform (48 h, 1 μM); 80% on BRD4 short isoform (48 h, 5 μM). In addition, in test [1], the concentration giving a half-maximal response (EC50) came out at 337 nM.
